Results: patent US11951094B2, “TLR2 modulator compounds, pharmaceutical compositions and uses thereof” (Axial Therapeutics, Inc., priority 2020, dated 2024)

Columns and labels:
Format in all cases: cell-based
[1] = biological target: T1, TLR2 (Homo sapiens, UniProt O60603); assay: TLR2 antagonist screening assay, HEK Blue hTLR2 cells, competition with diprovocim; set-up: host or cells: HEK Blue hTLR2 cells
Text: TLRs signal through ligand-mediated dimerization or multimerization. TLR2 may partner with TLR1 or TLR6 to produce an agonist signal. Compounds that prevent agonist signaling, antagonists, may interfere with proper dimerization or with downstream signaling. The following assay was developed to identify and characterize novel TLR2 antagonists.
The in vitro TLR2 assay consists of a cell line that responds to TLR2 engagement by producing a factor that elicits a color change in the culture media and can be readily measured by various colorimetric detection methods. This assay enables the identification of existing and novel compounds that engage TLR2. Treating reporter cells with putative TLR2 antagonists will diminish the reporter response to TLR2 agonists.
TLR2 antagonists were screened for TLR2 binding and blocking with a competition assay. […] The assay was performed with Invivogen HEK Blue cells, which express the human TLR2 receptor as well as NFkB-inducible secreted Alkaline Phosphatase. Alkaline Phosphatase activity was proportional to TLR2 activation, and thus served as a colorimetric reporter.
HEK Blue hTLR2 cells (Invivogen) were grown in DMEM with 10% FBS (Seradigm). Cells were seeded at 40,000 cells/well in 96-well plates and incubated overnight to adhere. Media was replaced with 200 uL/well HEK Blue Detection Medium (Invivogen). […] Cells incubated for 16-24 hours, then absorbance at 600 nm was read on a SpectraMax M2 (Molecular Devices). […] Four parameter dose response curves were fit according to the following model, and IC50 values were reported: Y=Bottom+(Top-Bottom)/(1+(IC50/X)^HillSlope)
Where X is the antagonist concentration, Y is the normalized absorbance, Top and Bottom are the plateaus, IC50 is the concentration at half-maximal inhibition, and HillSlope is the slope factor.
• 1. HEK-Blue TLR2 cells are diluted in complete DME culture medium and plated into 96-well plates at 40,000 cells per well and cultured overnight. • 2. After 16-24 hours in culture, the media is removed and replaced with 200 microliters per well of HEK-Blue Detection media. • 3. TLR2 antagonists are diluted 100-fold from DMSO stocks into each well, yielding a final DMSO concentration of 1% in all wells. Reporter cells are treated for 1-2 hours, then treated with TLR2 agonist diluted to the EC50-70 concentration. • 4. Treated cells are cultured overnight and the following day are assayed in plate reader for Absorbance at 600 nanometer.

[2] = biological target: T1, TLR2; assay: TLR2 agonist screening assay, HEK-Blue TLR2 reporter cell line (NF-kB-driven SEAP, absorbance at 600 nm); set-up: host or cells: HEK-293 (HEK-Blue TLR2 reporter cell line); details: HEK-Blue TLR2 reporter cells, agonist mode
Procedure, shortened: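 EC50 values come from dilution series of agonist on TLR2-transfected HEK-293 reporter cells carrying an NF-kB-SEAP construct. Cells sat overnight with compound in substrate-containing Detection medium at 1% DMSO, and secreted phosphatase activity was quantified as absorbance at 600 nm.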

[3] = biological target: T2, TLR2 (Mus musculus, UniProt Q9QUN7); assay: TLR2 functional assay, cytokine release from RAW 264.7 mouse macrophage cell line; details: average of all runs
T2 construct: endogenous in cells; host or cells: RAW 264.7
T2 sequence (Q9QUN7 25-784): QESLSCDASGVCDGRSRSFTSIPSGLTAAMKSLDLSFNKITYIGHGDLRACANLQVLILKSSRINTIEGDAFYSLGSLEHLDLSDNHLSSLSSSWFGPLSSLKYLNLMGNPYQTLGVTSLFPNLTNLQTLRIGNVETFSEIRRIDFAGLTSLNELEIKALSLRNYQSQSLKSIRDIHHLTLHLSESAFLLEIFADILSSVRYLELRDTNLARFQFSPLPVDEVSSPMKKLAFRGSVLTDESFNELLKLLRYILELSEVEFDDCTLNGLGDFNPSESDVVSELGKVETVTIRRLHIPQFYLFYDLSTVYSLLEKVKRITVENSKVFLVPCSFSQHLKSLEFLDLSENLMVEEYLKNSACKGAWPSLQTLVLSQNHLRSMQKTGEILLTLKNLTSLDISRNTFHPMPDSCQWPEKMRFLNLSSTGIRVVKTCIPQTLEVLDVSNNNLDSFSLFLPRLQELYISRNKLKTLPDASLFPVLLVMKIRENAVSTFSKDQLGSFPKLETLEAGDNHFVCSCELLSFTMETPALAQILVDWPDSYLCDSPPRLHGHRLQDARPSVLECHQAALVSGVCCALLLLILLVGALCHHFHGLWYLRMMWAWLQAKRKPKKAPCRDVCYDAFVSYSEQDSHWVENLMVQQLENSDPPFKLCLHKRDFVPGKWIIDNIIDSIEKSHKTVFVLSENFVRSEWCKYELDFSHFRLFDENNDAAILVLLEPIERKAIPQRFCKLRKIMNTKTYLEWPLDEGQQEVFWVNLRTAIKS
Procedure, shortened: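 RAW 264.7 cells plated (about 40,000 per well) and treated with compounds at varying concentrations for 6–24 h (or overnight). Released cytokines in supernatant (e.g. TNF-alpha, IL-1, IL-10, IL-12) measured by ELISA or MSD multiplex; EC50 fitted.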

[4] = biological target: T1, TLR2; assay: TLR2 in vitro functional assay, cytokine release from human monocytic cell line THP-1; details: THP-1 human monocytic cell line, average of all runs
Procedure: Cells of the immune system respond to TLR agonists in part by secreting cytokines. Functional assays for TLR2 agonists measure cytokine release from purified immune cells or immortalized cell lines derived from immune cells. Cytokine release is measured by standard ELISA approaches or multiplexed analysis using the Meso Scale Discovery (MSD) platform.
Following assay measurements utilizing either HEK-Blue detection or cytokine release, all data is analyzed with the GraphPad Prism8 statistical package to determine EC50, binding and activity metrics for the TLR2 modulators. […]
Numerous cell lines derived from various cell types can respond to TLR2 agonists with stereotyped cytokine and chemokine secretion. In particular, cell lines derived from macrophages respond robustly to TLR2 agonists by secreting a wide array of cytokines, including (but not limited to) TNF-alpha, IL-1, IL-10 and IL-12. The human monocytic cell line THP-1, the mouse macrophage line RAW-264.7, and the rat macrophage line NR8383 were used. For each assay, the respective cell lines were plated into 96-well plates overnight and then treated the following day with various TLR2-engaging compounds at varying concentrations. The next day, supernatants were collected and assayed by multiplex immunodetection for cytokines released (MSD detection kits for respective species).
Data provided in Table 5 is generated using protocols described in Example 45 and 46.

T1 sequence (O60603 21-784): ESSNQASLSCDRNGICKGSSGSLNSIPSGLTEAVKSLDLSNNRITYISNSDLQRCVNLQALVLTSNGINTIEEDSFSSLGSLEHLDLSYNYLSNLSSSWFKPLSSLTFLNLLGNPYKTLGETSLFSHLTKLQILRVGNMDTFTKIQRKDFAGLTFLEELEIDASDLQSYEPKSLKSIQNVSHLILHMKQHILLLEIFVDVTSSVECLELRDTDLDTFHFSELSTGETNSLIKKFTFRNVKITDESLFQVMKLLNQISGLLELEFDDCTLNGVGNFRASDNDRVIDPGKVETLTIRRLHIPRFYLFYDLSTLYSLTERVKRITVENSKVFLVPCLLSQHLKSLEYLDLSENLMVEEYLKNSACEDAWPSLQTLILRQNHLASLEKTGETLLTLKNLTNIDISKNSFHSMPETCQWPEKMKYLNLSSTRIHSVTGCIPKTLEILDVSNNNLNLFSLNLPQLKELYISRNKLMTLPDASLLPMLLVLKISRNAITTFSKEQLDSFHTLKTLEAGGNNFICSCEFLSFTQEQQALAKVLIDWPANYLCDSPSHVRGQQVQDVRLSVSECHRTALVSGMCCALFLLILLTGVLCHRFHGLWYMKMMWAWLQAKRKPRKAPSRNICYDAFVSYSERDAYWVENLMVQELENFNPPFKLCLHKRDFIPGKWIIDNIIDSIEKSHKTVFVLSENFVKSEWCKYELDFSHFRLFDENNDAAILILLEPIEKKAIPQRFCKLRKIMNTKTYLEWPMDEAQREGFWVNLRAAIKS

| SMILES | IC50 [1] [µM] | EC50 ([2]; average of all runs (Table 4)) [µM] | EC50 ([2]; average of all runs (Table 3)) [µM] | EC50 [3] [µM] | EC50 [4] [µM] |
| --- | --- | --- | --- | --- | --- |
| CCCCCCCCCCCCCCN1CC(=O)N[C@@H](CNC(=O)c2ccc(C(=O)N3C[C@@H](C(=O)N[C@H]4C[C@@H]4c4ccccc4)[C@H](C(=O)N[C@H]4C[C@@H]4c4ccccc4)C3)cc2)C1=O [Compound 177, (3S,4S)-1-(4-((((S)-3,6-dioxo-4-tetradecylpiperazin-2-yl)methyl)carbamoyl)benzoyl)-N3,N4-bis((1S,2R)-2-phenylcyclopropyl)pyrrolidine-3,4-dicarboxamide] | 0.001 to 0.35 | > 1 |  |  |  |
| CCCCCCCCCCCCCCNC(=O)C1CN(C(=O)c2ccc(C(=O)N3C[C@@H](C(=O)N[C@H]4C[C@@H]4c4ccccc4)[C@H](C(=O)N[C@H]4C[C@@H]4c4ccccc4)C3)cc2)CCN1C(C)=O (stereo partly shown) [Compound 024] | 0.351 to 1 |  | > 1 |  |  |
| CCCCCCN1C(=O)[C@H](CNC(=O)c2ccc(C(=O)N3C[C@@H](C(=O)N[C@H]4C[C@@H]4c4ccccc4)[C@H](C(=O)N[C@H]4C[C@@H]4c4ccccc4)C3)cc2)NC(=O)[C@@H]1CCCCC [Compound 176, (3S,4S)-1-(4-((((2S,5S)-4-hexyl-3,6-dioxo-5-pentylpiperazin-2-yl)methyl)carbamoyl)benzoyl)-N3,N4-bis((1S,2R)-2-phenylcyclopropyl)pyrrolidine-3,4-dicarboxamide] | 0.001 to 0.35 | > 1 |  |  |  |
| CCCCCCCC(=O)N1CCCN(S(=O)(=O)c2ccc(C(=O)N3C[C@@H](C(=O)N[C@H]4C[C@@H]4c4ccccc4)[C@H](C(=O)N[C@H]4C[C@@H]4c4ccccc4)C3)cc2)CC1C(=O)NCCCCCC (single isomer, unassigned) [Compound 203, (3S,4S)-1-(4-(((R*)-3-(hexylcarbamoyl)-4-octanoyl-1,4-diazepan-1-yl)sulfonyl)benzoyl)-N3,N4-bis((1S,2R)-2-phenylcyclopropyl)pyrrolidine-3,4-dicarboxamide] | 0.351 to 1 | > 1 |  |  |  |
| CCCCCCCCCCCCCCNC(=O)[C@@H]1CN(C(=O)c2ccc(C(=O)N3C[C@@H](C(=O)N[C@H]4C[C@@H]4c4ccccc4)[C@H](C(=O)N[C@H]4C[C@@H]4c4ccccc4)C3)cc2)C[C@H]1OC [Compound 109, (3S,4S)-1-(4-((3S,4R)-3-methoxy-4-(tetradecylcarbamoyl)pyrrolidine-1-carbonyl)benzoyl)-N3,N4-bis((1S,2R)-2-phenylcyclopropyl)pyrrolidine-3,4-dicarboxamide] |  | 0.0001 to 0.05 |  | > 1 | 0.0001 to 0.05 |
| CCCCCCCCCCCCCCNC(=O)[C@@H]1CN(C(=O)c2ccc(C(=O)N3C[C@@H](C(=O)N[C@H]4C[C@@H]4c4ccccc4)[C@H](C(=O)N[C@H]4C[C@@H]4c4ccccc4)C3)cc2)CCN1C(C)=O [Compound 162, (3S,4S)-1-(4-((S)-4-acetyl-3-(tetradecylcarbamoyl)piperazine-1-carbonyl)benzoyl)-N3,N4-bis((1S,2R)-2-phenylcyclopropyl) pyrrolidine-3,4-dicarboxamide] | 0.001 to 0.35 | > 1 |  |  |  |
| CCCCCCCC(=O)N1CCN(S(=O)(=O)c2ccc(C(=O)N3C[C@@H](C(=O)N[C@H]4C[C@@H]4c4ccccc4)[C@H](C(=O)N[C@H]4C[C@@H]4c4ccccc4)C3)cc2)CC1C(=O)NCCCCCC (stereo partly shown) [Compound 053] | 0.351 to 1 |  | > 1 |  |  |
| O=C(N[C@H]1C[C@@H]1c1ccccc1)[C@@H]1CN(C(=O)c2ccc(C(=O)N3CC[C@@H](n4cnc(-c5ccc(C(F)(F)F)cc5)c4)C3)cc2)C[C@H]1C(=O)N[C@H]1C[C@@H]1c1ccccc1 [Compound 277] | 0.001 to 0.35 | > 1 |  |  |  |
| CCCCCCCCCCCCCCC(=O)NC1CCN(C(=O)c2ccc(C(=O)N3C[C@@H](C(=O)N[C@H]4C[C@@H]4c4ccccc4)[C@H](C(=O)N[C@H]4C[C@@H]4c4ccccc4)C3)cc2)CC1 [Compound 008] | 0.351 to 1 |  | > 1 |  |  |
| CCCCCCCC(=O)N1CCN(S(=O)(=O)c2ccc(C(=O)N3C[C@@H](C(=O)N[C@H]4C[C@@H]4c4ccccc4)[C@H](C(=O)N[C@H]4C[C@@H]4c4ccccc4)C3)cc2)C[C@H]1C(=O)NCCCCCC [Compound 160, (3S,4S)-1-(4-(((S)-3-(hexylcarbamoyl)-4-octanoylpiperazin-1-yl)sulfonyl)benzoyl)-N3,N4-bis((1S,2R)-2-phenylcyclopropyl)pyrrolidine-3,4-dicarboxamide] | 0.351 to 1 | > 1 |  |  |  |
| CCCCCCCCCCCCCCNC(=O)[C@H]1CN(C(=O)c2ccc(C(=O)N3C[C@@H](C(=O)N[C@H]4C[C@@H]4c4ccccc4)[C@H](C(=O)N[C@H]4C[C@@H]4c4ccccc4)C3)cc2)C[C@H]1OC (relative stereo) [Compound 108, (3S,4S)-1-(4-((3S*,4S*)-3-methoxy-4-(tetradecylcarbamoyl)pyrrolidine-1-carbonyl)benzoyl)-N3,N4-bis((1S,2R)-2-phenylcyclopropyl)pyrrolidine-3,4-dicarboxamide] |  | 0.0001 to 0.05 |  | 0.051 to 0.35 | 0.0001 to 0.05 |
| CCCCCCCCCCCCCCNC(=O)C1CN(C(=O)c2ccc(C(=O)N3C[C@@H](C(=O)N[C@H]4C[C@@H]4c4ccccc4)[C@H](C(=O)N[C@H]4C[C@@H]4c4ccccc4)C3)cc2)C1 [Compound 007] | 0.351 to 1 |  | > 1 |  |  |
| O=C(N[C@H]1C[C@@H]1c1ccccc1)[C@@H]1CN(C(=O)C23CCC(C(=O)N4C[C@@H](C(=O)N[C@H]5C[C@@H]5c5ccccc5)[C@H](C(=O)N[C@H]5C[C@@H]5c5ccccc5)C4)(CC2)CC3)C[C@H]1C(=O)N[C@H]1C[C@@H]1c1ccccc1 [Compound 077, (3S,3'S,4S,4'S)-1,1′-(bicyclo [2.2.2]octane-1,4-dicarbonyl) bis (N3,N4-bis((1S,2R)-2-phenylcyclopropyl)pyrrolidine-3,4-dicarboxamide)] | 0.351 to 1 | > 1 |  |  |  |
